Measurements reported in US20250325684A1, “POTENT ANTI-CANCER CYCLOTIDES” (University of Southern California, priority 2022, published 2025).
Numbered stars: 1 amine (or outer) side, 2 acyl side, 3 side chain; on linkers, the order of the positions; unused ones are H or OH. Bridge positions count the residues as written; N and C are the ends. Square brackets hold non-standard residues; d marks the D form. Peptide text beside a SMILES is read from it. I, II: the chains in the order shown. X1 = O=C(CCc1cn(CCOCCOCCOCCC(=O)[*:2])nn1)[*:1]; isoGln = NC(=O)[C@H](CCC(=O)[*:2])N[*:1]

Legend:
NCl-H526 = test: MTT cell viability, NCl-H526 cells; type: cell-based, human; details: NCl-H526 lung small cell carcinoma, p53 Null
Method: (§1) Cell viability assay in several human cancer cell lines (See Tables 1 to 10). Cell lines were cultured in RPMI 1640 (or recommended medium when indicated) medium supplemented with 10% fetal calf serum, penicillin (50 IU/mL) and streptomycin ([…]) at 37° C. in 5% CO2. Cell viability studies was carried using the MTT (3-(4,5-dimethylthiazol-2-yl)-2,5-diphenyltetrazolium bromide) assay as previously described (31). Briefly, ≈2×10^3 CRC cells were be seeded in 96-well microtiter plates in 100 μL RPMI 1640 in the presence of 10% calf serum. […] After 1 h, 210 μL/well of full complemented media was added, the cells were grown for 48 h and then treated with 20 μL of a solution of MTT (5 mg/mL) for 2 h. The medium was discarded and DMSO ([…]) was added to each well and incubated with gentle shaking for 20 min at room temperature. The absorbance at 595 nm of the solution is analyzed using a Tecan Genios Multifunctional Microplate Reader (Tecan System Inc) and the background at 670 nm subtracted. RNA-Seq analysis was performed using state-of-the-art bioinformatics tools. Briefly, raw RNA-Seq reads were mapped to human genome (hg38) using STAR aligner (v2.7.3a). Gencode Release 36 reference was used for annotation. Transcript and gene expression levels were quantified using the IsoEM (37) with default parameters. Counts per million (CPM) method is used for normalization. Differential expression was done using DESeq2 with default parameters. Genes involved in different biological pathways (human) were searched from Geneontology (http://geneontology.org/). Bioinformatics results can be validated by using Partek Flow (v10.0.21.0912), a bioinformatics pipeline developed by Zymo Research (https://www.zymoresearch.com/).
(§2) Cell viability was evaluated using the MTT assay as described above.

MV4-11 = test: MTT cell viability, MV4-11 cells; type: cell-based, human; details: MV4-11 childhood acute monocytic leukemia, p53 WT
Method: as §1, §2

NCl-H23 = test: MTT cell viability, NCl-H23 cells; type: cell-based, human; details: NCl-H23 lung adenocarcinoma, p53 Mutant
Method: as §1, §2

LoVo = test: MTT cell viability, LoVo cells; type: cell-based, human; details: LoVo colon adenocarcinoma, p53 WT
Method: as §1, §2

HL-60 = test: MTT cell viability, HL-60 cells; type: cell-based, human; details: HL-60 adult acute myeloid leukemia, p53 Null
Method: as §1, with “Counts per million (CPM) method is used for normalization. Differential expression was done using DESeq2 with default parameters. Genes involved in different biological pathways (human) were searched from Geneontology (http://geneontology.org/). Bioinformatics results can be validated by using Partek Flow (v10.0.21.0912), a bioinformatics pipeline developed by Zymo Research (https://www.zymoresearch.com/).” left out
as §2

CT26 = test: MTT cell viability, CT26 cells; type: cell-based; details: CT26 murine colon cancer, p53 WT
Method: as §1, with “Counts per million (CPM) method is used for normalization. Differential expression was done using DESeq2 with default parameters. Genes involved in different biological pathways (human) were searched from Geneontology (http://geneontology.org/). Bioinformatics results can be validated by using Partek Flow (v10.0.21.0912), a bioinformatics pipeline developed by Zymo Research (https://www.zymoresearch.com/).” left out
as §2

MOLM-13 = test: MTT cell viability, MOLM-13 cells; type: cell-based, human; details: MOLM-13 adult acute myeloid leukemia, p53 WT
Method: as §1, §2

NCl-A549 = test: MTT cell viability, NCl-A549 cells; type: cell-based, human; details: NCl-A549 lung adenocarcinoma, p53 WT
Method: as §1, §2

Capan-1 = test: MTT cell viability, Capan-1 cells; type: cell-based, human; details: Capan-1 pancreatic ductal adenocarcinoma, p53 Mutant
Method: as §1, §2

Jurkat = test: MTT cell viability, Jurkat cells; type: cell-based, human; details: Jurkat childhood T acute lymphoblastic leukemia, p53 Mutant
Method: as §1, §2

Caco-2 = test: MTT cell viability, Caco-2 cells; type: cell-based, human; details: Caco-2 colon adenocarcinoma, p53 Mutant
Method: as §1, §2

NCl-H1975 = test: MTT cell viability, NCl-H1975 cells; type: cell-based, human; details: NCl-H1975 lung adenocarcinoma, p53 Mutant
Method: as §1, with “Counts per million (CPM) method is used for normalization. Differential expression was done using DESeq2 with default parameters. Genes involved in different biological pathways (human) were searched from Geneontology (http://geneontology.org/). Bioinformatics results can be validated by using Partek Flow (v10.0.21.0912), a bioinformatics pipeline developed by Zymo Research (https://www.zymoresearch.com/).” left out
as §2

NCl-H1944 = test: MTT cell viability, NCl-H1944 cells; type: cell-based, human; details: NCl-H1944 lung adenocarcinoma, p53 WT
Method: as §1, with “Counts per million (CPM) method is used for normalization. Differential expression was done using DESeq2 with default parameters. Genes involved in different biological pathways (human) were searched from Geneontology (http://geneontology.org/). Bioinformatics results can be validated by using Partek Flow (v10.0.21.0912), a bioinformatics pipeline developed by Zymo Research (https://www.zymoresearch.com/).” left out
as §2

HCT116^+/+ = test: MTT cell viability, HCT116 p53 wild-type cells; type: cell-based, human; details: HCT116^+/+ colon carcinoma, p53 WT; MTT; read-out: EC50
Method: as §1, §2

DLD-1 = test: MTT cell viability, DLD-1 cells; type: cell-based, human; details: DLD-1 colon adenocarcinoma, p53 Mutant
Method: as §1, with “Counts per million (CPM) method is used for normalization. Differential expression was done using DESeq2 with default parameters. Genes involved in different biological pathways (human) were searched from Geneontology (http://geneontology.org/). Bioinformatics results can be validated by using Partek Flow (v10.0.21.0912), a bioinformatics pipeline developed by Zymo Research (https://www.zymoresearch.com/).” left out
as §2

NCl-H1395 = test: MTT cell viability, NCl-H1395 cells; type: cell-based, human; details: NCl-H1395 lung adenocarcinoma, p53 WT
Method: as §1, with “Counts per million (CPM) method is used for normalization. Differential expression was done using DESeq2 with default parameters. Genes involved in different biological pathways (human) were searched from Geneontology (http://geneontology.org/). Bioinformatics results can be validated by using Partek Flow (v10.0.21.0912), a bioinformatics pipeline developed by Zymo Research (https://www.zymoresearch.com/).” left out
as §2

NCl-H1299 = test: MTT cell viability, NCl-H1299 cells; type: cell-based, human; details: NCl-H1299 lung large cell carcinoma, p53 Null
Method: as §1, §2

NCl-H2347 = test: MTT cell viability, NCl-H2347 cells; type: cell-based, human; details: NCl-H2347 lung adenocarcinoma, p53 Mutant
Method: as §1, with “Counts per million (CPM) method is used for normalization. Differential expression was done using DESeq2 with default parameters. Genes involved in different biological pathways (human) were searched from Geneontology (http://geneontology.org/). Bioinformatics results can be validated by using Partek Flow (v10.0.21.0912), a bioinformatics pipeline developed by Zymo Research (https://www.zymoresearch.com/).” left out
as §2

LLC-1 = test: MTT cell viability, LLC-1 cells; type: cell-based; details: LLC-1 murine lung cancer, p53 WT
Method: as §1, with “Counts per million (CPM) method is used for normalization. Differential expression was done using DESeq2 with default parameters. Genes involved in different biological pathways (human) were searched from Geneontology (http://geneontology.org/). Bioinformatics results can be validated by using Partek Flow (v10.0.21.0912), a bioinformatics pipeline developed by Zymo Research (https://www.zymoresearch.com/).” left out
as §2

NCl-H292 = test: MTT cell viability, NCl-H292 cells; type: cell-based, human; details: NCl-H292 lung mucoepidermoid carcinoma, p53 WT
Method: as §1, with “Counts per million (CPM) method is used for normalization. Differential expression was done using DESeq2 with default parameters. Genes involved in different biological pathways (human) were searched from Geneontology (http://geneontology.org/). Bioinformatics results can be validated by using Partek Flow (v10.0.21.0912), a bioinformatics pipeline developed by Zymo Research (https://www.zymoresearch.com/).” left out
as §2

NCl-H69 = test: MTT cell viability, NCl-H69 cells; type: cell-based, human; details: NCl-H69 lung small cell carcinoma, p53 Mutant
Method: as §1, §2

BxPC-3 = test: MTT cell viability, BxPC-3 cells; type: cell-based, human; details: BxPC-3 pancreatic ductal adenocarcinoma, p53 Mutant
Method: as §1, §2

MSCLC 494 = test: MTT cell viability, MSCLC 494 cells; type: cell-based; details: MSCLC 494 murine small cell lung cancer
Method: as §1, §2

4T1 = test: MTT cell viability, 4T1 cells; type: cell-based; details: 4T1 murine breast cancer, p53 WT
Method: as §1, with “Counts per million (CPM) method is used for normalization. Differential expression was done using DESeq2 with default parameters. Genes involved in different biological pathways (human) were searched from Geneontology (http://geneontology.org/). Bioinformatics results can be validated by using Partek Flow (v10.0.21.0912), a bioinformatics pipeline developed by Zymo Research (https://www.zymoresearch.com/).” left out
as §2

U937 = test: MTT cell viability, U937 cells; type: cell-based, human; details: U937 adult acute monocytic leukemia, p53 Mutant
Method: as §1, §2

NCl-H522 = test: MTT cell viability, NCl-H522 cells; type: cell-based, human; details: NCl-H522 lung adenocarcinoma, p53 Mutant (Deletion)
Method: as §1, §2

Compound	EC50 (NCl-H526) [µM]	EC50 (MV4-11) [µM]	EC50 (NCl-H23) [µM]	EC50 (LoVo) [µM]	EC50 (HL-60) [µM]	EC50 (CT26) [µM]	EC50 (MOLM-13) [µM]	EC50 (NCl-A549) [µM]	EC50 (Capan-1) [µM]	EC50 (Jurkat) [µM]	EC50 (Caco-2) [µM]	EC50 (NCl-H1975) [µM]	EC50 (NCl-H1944) [µM]	EC50 (HCT116^+/+) [µM]	EC50 (DLD-1) [µM]	EC50 (NCl-H1395) [µM]	EC50 (NCl-H1299) [µM]	EC50 (NCl-H2347) [µM]	EC50 (LLC-1) [µM]	EC50 (BxPC-3) [µM]	other results
N=C(N)NCCC[C@@H]1NC(=O)[C@@H](CCCNC(=N)N)NC(=O)[C@H](CCCCN)NC(=O)[C@@H](N)CCCCNC(=O)CC[C@@H](C(=O)O)NC(=O)[C@@H](CCCNC(=N)N)NC(=O)[C@H](CCCNC(=N)N)NC(=O)[C@@H](CCCCN)NC(=O)[C@H](CCCCN)NC(=O)[C@@H](CCCNC(=N)N)NC(=O)CNC(=O)[C@@H](CCCNC(=N)N)NC1=O [cTAT] (H-KK[dR]R[dR]G[dR]K[dK]R[dR]E-OH; lactam 1-12; N-terminus and C-terminus assumed)	> 100	> 100	> 100	> 100	> 100	> 100	> 100	> 100	> 100	> 100	> 100	> 100	> 100	> 100	> 100	> 100	> 100	> 100	> 100	> 100	EC50 (NCl-H292): > 100 µM; EC50 (NCl-H69): > 100 µM; EC50 (MSCLC 494): > 100 µM; EC50 (4T1): > 100 µM; EC50 (U937): > 100 µM; EC50 (NCl-H522): > 100 µM
I: cyclo(ACICRHDSYCGSGSDGGVCPNLYLLCRRDKDCPG) / II: KK[dR]R[dR]G[dR]K[dK]R[dR][isoGln] (disulfide I:2-I:19, I:4-I:26, I:10-I:32; linker I:30-II:N via X1; lactam II:1-II:C) [Cyclotide 52-2-cTAT]	–	–	–	10.7 ± 0.9	–	–	–	–	3.3 ± 0.3	–	11.7 ± 0.8	–	–	10.9 ± 1.3	–	–	–	–	–	10.6 ± 1	–
COc1ccc(C2=N[C@@H](c3ccc(Cl)cc3)[C@@H](c3ccc(Cl)cc3)N2C(=O)N2CCNC(=O)C2)c(OC(C)C)c1 [Nutlin 3A]	> 100	0.7 ± 0.1	> 50	1.5 ± 0.1	33.3 ± 4.4	9.8 ± 1.2	1.4 ± 0.1	6.6 ± 0.7	> 100	45.2 ± 2.4	> 50	> 100	22.1	–	> 100	23.1 ± 5.6	> 100	25.3 ± 5.5	9.4 ± 1.2	38.5 ± 5.1	EC50 (NCl-H292): 19.2 ± 2.9 µM; EC50 (NCl-H69): > 50 µM; EC50 (MSCLC 494): > 100 µM; EC50 (4T1): 28.5 ± 8.6 µM; EC50 (U937): > 50 µM; EC50 (NCl-H522): > 50 µM
